Data as given in the NIST ThermoML archive (doi:10.1016/j.fluid.2016.11.010).

Legend:
[1] = for vapor or sublimation pressure: Liquid, Transpiration method
[2] = Molar enthalpy of transition or fusion; details: Crystal; DSC

Cc1ccc(-n2ccnc2)cc1 [4-methyl-phenyl-1H-imidazole]
[1]
Details | vapor or sublimation pressure [kPa]
328.3 K | 0.00266
333 K | 0.00399
338.1 K | 0.00603
340.8 K | 0.00739
345.7 K | 0.01103
350.7 K | 0.01582
355.7 K | 0.02204
360.7 K | 0.0313
365.6 K | 0.04264
370.6 K | 0.0608
375.3 K | 0.07866

COc1ccc(-n2ccnc2)cc1 [4-methoxy-phenyl-1H-imidazole]
[1]
Details | vapor or sublimation pressure [kPa]
333.4 K | 0.00061
338.2 K | 0.00094
343.3 K | 0.00147
348.2 K | 0.00215
353.3 K | 0.00328
358.3 K | 0.00469
363.3 K | 0.00695
368.2 K | 0.00969
373.2 K | 0.01433

c1ccc(-n2ccnc2)cc1 [1-phenylimidazole]
[1]
Details | vapor or sublimation pressure [kPa]
298.7 K | 0.00041
308.6 K | 0.00105
313.5 K | 0.00158
318.4 K | 0.00254
319.1 K | 0.00269
323.5 K | 0.00393
328.5 K | 0.00594
333.7 K | 0.00902
338.4 K | 0.01334
343.2 K | 0.01799
348.2 K | 0.02552
353.1 K | 0.03567

COc1ccccc1-n1ccnc1 [2-methoxy-phenyl-1H-imidazole]
[1]
Details | vapor or sublimation pressure [kPa]
333.2 K | 0.00084
338.3 K | 0.00128
343.1 K | 0.00192
348.1 K | 0.00293
353 K | 0.00409
358 K | 0.00591
362.9 K | 0.00864
367.9 K | 0.01198
374.2 K | 0.01855

Brc1ccc(-n2ccnc2)cc1 [4-bromo-phenyl-1H-imidazole]
[1]
Details | vapor or sublimation pressure [kPa]
343.3 K | 0.00037
348.1 K | 0.00065
353 K | 0.00103
358.2 K | 0.00174
363.2 K | 0.00273
368.2 K | 0.00467
374.1 K | 0.00773

Details | Normal melting temperature [°C]
[1], Crystal, DTA | 120.1

Details | Molar enthalpy of transition or fusion [kcal/mol]
[2] | 6.84

Brc1ccccc1-n1ccnc1 [2-bromo-phenyl-1H-imidazole]
[1]
Details | vapor or sublimation pressure [kPa]
343.2 K | 0.00369
348.2 K | 0.00534
353.2 K | 0.00754
358.1 K | 0.01128
363.1 K | 0.01573
368 K | 0.0218
374 K | 0.03122

Fc1ccc(-n2ccnc2)cc1 [4-fluoro-phenyl-1H-imidazole]
[1]
Details | vapor or sublimation pressure [kPa]
313 K | 0.00108
318.4 K | 0.00166
323.3 K | 0.00268
328.2 K | 0.00401
333.2 K | 0.00563
335.7 K | 0.00702
338.2 K | 0.00834
340.7 K | 0.01004
343.2 K | 0.01191
345.6 K | 0.01481
348.2 K | 0.01727
353.1 K | 0.02449
358.2 K | 0.03573
363.2 K | 0.04969
368.1 K | 0.06685
373.1 K | 0.09256

Cc1ccccc1-n1ccnc1 [1-(o-tolyl)-1H-imidazole]
[1]
Details | vapor or sublimation pressure [kPa]
313.3 K | 0.00112
318.2 K | 0.00165
323.2 K | 0.00266
328.2 K | 0.00389
333.2 K | 0.00587
338.1 K | 0.00828
343.1 K | 0.01155
348.1 K | 0.01711
353.1 K | 0.02295
358 K | 0.03338
363 K | 0.04638

Fc1ccccc1-n1ccnc1 [2-fluoro-phenyl-1H-imidazole]
[1]
Details | vapor or sublimation pressure [kPa]
323.2 K | 0.0041
328.2 K | 0.00615
333.2 K | 0.00892
338.1 K | 0.01364
343.1 K | 0.01948
348.1 K | 0.02761
353.1 K | 0.03781
358.1 K | 0.05311
363 K | 0.0745
367.9 K | 0.09597
